Test [1] concerns 3T3-L1. Nature of the test: Acute effects in vitro by measuring 2-deoxyglucose (2DG) uptake in vehicle treated 3T3-L1 adipocytes at 30 uM dose. The class given is functional.
Test [2] deals with Mus musculus. Nature of the test: In vivo hypoglycemic activity expressed as glucose lowering relative to positive control in 6-8 week old C57BL/6J ob/ob mouse at 10 mg/kg. It counts as functional.
In test [3] the test system is Mus musculus. Put plainly: compound was tested in vivo for hypoglycemic activity expressed as Glucose lowering relative to positive control in 6-8 week old C57BL/6J ob/ob mouse at 0.5 mg/kg. The class given is functional.
The test system of test [4] is 3T3-L1. Put plainly: compound was evaluated for their acute effects in vitro by measuring 2-Deoxyglucose (2DG) uptake in vehicle treated 3T3-L1 adipocytes at concentration of 30 micro M. The class given is functional.
Test [5] has as its system 3T3-L1. Put plainly: compound was evaluated for their acute effects in vitro by measuring 2-Deoxyglucose (2DG) uptake in vehicle treated 3T3-L1 adipocytes at concentration of 3 micro M. It counts as functional.
Test [6] relates to 3T3-L1. Put plainly: compound was evaluated for their acute effects in vitro by measuring 2-Deoxyglucose (2DG) uptake in vehicle treated 3T3-L1 adipocytes at concentration of 10 micro M. The class given is functional.
Test [7] relates to 3T3-L1. Put plainly: In vitro measurements of 2-Deoxyglucose (2DG) uptake in vehicle treated 3T3-L1 adipocytes at 60 uM dose. It counts as functional.
The species named for test [8] is Rattus norvegicus. Put plainly: Inhibition of gluconeogenesis in rat. The class given is functional. The note with it: Rattus norvegicus; read-out: ED50.
Test [9] relates to Mus musculus. Nature of the test: In vivo hypoglycemic activity expressed as glucose lowering relative to positive control in 6-8 week old C57BL/6J ob/ob mouse at 5 mg/kg. The class given is functional.
Test [10] concerns Mus musculus. Put plainly: In vivo hypoglycemic activity expressed as glucose lowering relative to positive control in 6-8 week old C57BL/6J ob/ob mouse at 1 mg/kg. The class given is functional.
For test [11], the system named is Mus musculus. Put plainly: compound was tested in vivo for hypoglycemic activity expressed as Glucose lowering relative to positive control in 6-8 week old C57BL/6J ob/ob mouse at 0.1 mg/kg. It counts as functional.
Test [12] relates to 3T3-L1. Nature of the test: compound was evaluated for their acute effects in vitro by measuring 2-Deoxyglucose (2DG) uptake in vehicle treated 3T3-L1 adipocytes at 1 uM dose. It counts as functional.
Test [13] concerns 3T3-L1. Put plainly: Acute effects in vitro by measuring 2-deoxyglucose (2DG) uptake in vehicle treated 3T3-L1 adipocytes at 10 uM dose. The class given is functional.
The test system of test [14] is 3T3-L1. Nature of the test: compound was evaluated for their acute effects in vitro by measuring 2-Deoxyglucose (2DG) uptake in vehicle treated 3T3-L1 adipocytes at 3 uM dose. The class given is functional.
Test [15] has as its system Mus musculus. Nature of the test: compound was tested in vivo for hypoglycemic activity in 6-8 week old C57BL/6J ob/ob mouse at 10 mg/kg. It counts as functional.
In test [16] the test system is 3T3-L1. Nature of the test: compound was evaluated for their acute effects in vitro by measuring 2-Deoxyglucose (2DG) uptake in vehicle treated 3T3-L1 adipocytes at 30 uM dose. The class given is functional.
Test [17] relates to 3T3-L1. Nature of the test: compound was evaluated for their acute effects in vitro by measuring 2-Deoxyglucose (2DG) uptake in vehicle treated 3T3-L1 adipocytes at 10 uM dose. The class given is functional.
The species entered for test [18] is Rattus norvegicus. Put plainly: Compound was tested for inhibition of gluconeogenesis. It counts as functional. The note with it: Rattus norvegicus; read-out: ED50.
The test system of test [19] is 3T3-L1. Put plainly: In vitro measurements 2-Deoxyglucose (2DG) uptake in vehicle treated 3T3-L1 adipocytes at 100 uM dose. It counts as functional.
In test [20] the test system is Mus musculus. Nature of the test: compound was tested in vivo for hypoglycemic activity in 6-8 week old C57BL/6J ob/ob mouse. It counts as functional.
Test [21] has as its system Mus musculus. Put plainly: compound was tested in vivo for hypoglycemic activity expressed as Glucose lowering relative to positive control in 6-8 week old C57BL/6J ob/ob mouse. The class given is functional.
The subject of test [22] is Mus musculus. Put plainly: compound was tested in vivo for hypoglycemic activity in 6-8 week old C57BL/6J ob/ob mouse at 50 mg/kg. The class given is functional.
Test [23] deals with 3T3-L1. Put plainly: compound was evaluated for their acute effects in vitro by measuring 2-Deoxyglucose (2DG) uptake in vehicle treated 3T3-L1 adipocytes at 60 uM dose. The class given is functional.
The next test has as its system L6. Put plainly: compound was evaluated for their acute effects in vitro by measuring 2-Deoxyglucose (2DG) uptake in vehicle treated L6 […] at 60 uM dose. The class given is functional.
Test [24] concerns Mus musculus. Nature of the test: compound was tested in vivo for hypoglycemic activity expressed as Glucose lowering relative to positive control in 6-8 week old C57BL/6J ob/ob mouse at 50 mg/kg. The class given is functional.
Test [25] concerns Mus musculus. Put plainly: compound was tested in vivo for hypoglycemic activity expressed as Glucose lowering relative to positive control in 6-8 week old C57BL/6J ob/ob mouse at 5 mg/kg. The class given is functional.
The species entered for test [26] is Rattus norvegicus. Nature of the test: Percentage inhibition of Glucagon- stimulated Gluconeogenesis in Isolated Rat Hepatocytes in vitro. The class given is functional, Hepatocyte.
The species entered for test [27] is Rattus norvegicus. Nature of the test: Percentage inhibition of basal stimulated Gluconeogenesis in Isolated Rat Hepatocytes in vitro. It counts as functional, Hepatocyte.
Test [28] deals with 3T3-L1. Put plainly: In vitro by measurements of 2-Deoxyglucose (2DG) uptake in vehicle treated 3T3-L1 adipocytes at 3 uM dose. The class given is functional.
The subject of test [29] is Mus musculus. Nature of the test: compound was tested in vivo for hypoglycemic activity in 6-8 week old C57BL/6J ob/ob mouse at 25 mg/kg. It counts as functional.
For test [30], the species on record is Rattus norvegicus. Put plainly: Percentage inhibition of Glucagon stimulated Gluconeogenesis in Isolated Rat Hepatocytes in vitro. It counts as functional, Hepatocyte.
The subject of test [31] is 3T3-L1. Nature of the test: compound was evaluated for their acute effects in vitro by measuring 2-Deoxyglucose (2DG) uptake in vehicle treated 3T3-L1 adipocytes at 100 uM dose. The class given is functional.

Usually ED50 stands for the dose that gives a 50% effect, or the effect in half of the subjects. With `CCCc1ccc(CC(C)(Oc2ccc(C(C)C)cc2)C(=O)[O-])cc1.[Na+]` (stereo not given), the Basal uptake in the test with 3T3-L1 [1] stood at 97%; with 3T3-L1 [4], 233%; with 3T3-L1 [5], 103%; in the test with 3T3-L1 [6], 100%; with 3T3-L1 [7] it was 282%. The Hypoglycemic activity was determined as 113% in the test with Mus musculus [2], 69% with Mus musculus [3], 134% with Mus musculus [9] and 70% with Mus musculus [10]. Moreover, in the test filed under Rattus norvegicus [8], the ED50 is 0.5 mg/kg.

On to `CCc1cccc(CC(C)(Oc2ccc(Cc3ccccc3)cc2)C(=O)[O-])c1.[Na+]` (stereo not given), for which the Hypoglycemic activity with Mus musculus [11] was 73%; in the test with Mus musculus [2] it was 101%; in the test on Mus musculus [3] it was 52%; with Mus musculus [9], 102%; with Mus musculus [10], 87%. The results for the Basal uptake with 3T3-L1 [4], in the test on 3T3-L1 [5] and in the test with 3T3-L1 [6] were 265%, 128% and 179%, respectively. The ED50 in the test listed under Rattus norvegicus [8] amounted to 0.1 mg/kg.

`CC(C)c1ccc(OC(C)(Cc2ccccc2)C(=O)[O-])cc1.[Na+]` (stereo not given): the Hypoglycemic activity in the test with Mus musculus [2] turned out to be 3%. Further, the Basal uptake with 3T3-L1 [12] turned out to be 100%; in the test on 3T3-L1 [13], 126%; in the test on 3T3-L1 [14], 162%. Moreover, the ED50 in the test listed under Rattus norvegicus [8] was > 10 mg/kg.

On to `CC(C)c1ccc(OC(C)(C[N-]SC(F)(F)F)Cc2ccc(Cl)cc2)cc1.[Na+]` (stereo not given), for which the Hypoglycemic activity in the test on Mus musculus [15] is listed as <0%. Besides, the Basal uptake is on record as 159% with 3T3-L1 [16], 132% in the test with 3T3-L1 [17] and 127% with 3T3-L1 [14]. In the test listed under Rattus norvegicus [18], the ED50 is > 10 mg/kg.

In the test on 3T3-L1 [19], `Cc1ccc(CC(Oc2ccc(C(C)C)cc2)C(=O)O)cc1` (stereo not given) had a Basal uptake of 147%. Moreover, in the test with Mus musculus [20], the “Glucose lowering ob/ob dose” value amounted to 50 mg/kg. In the test listed under Rattus norvegicus [8], the ED50 was < 50 mg/kg. Besides, the Hypoglycemic activity in the test on Mus musculus [21] was found to be 113%.

As to `CC(C)c1ccc(SC(Cc2ccc(Cl)cc2)C(=O)O)cc1` (stereo not given), the results for the Hypoglycemic activity in the test on Mus musculus [15] and with Mus musculus [22] were 0% and 90%, respectively. In the test with 3T3-L1 [23], this molecule came in with a Basal uptake of 102%. In the test listed under Rattus norvegicus [18], the ED50 amounted to 10 mg/kg.

Consider `CC(C)c1ccc(OC(CCCCCc2ccc(Cl)cc2)C(=O)[O-])cc1.[Na+]` (stereo not given), for which the Basal uptake is recorded as 44% in the test with L6 and 180% with 3T3-L1 [17]. The Hypoglycemic activity in the test with Mus musculus [24] is 200%; with Mus musculus [2], 32%; in the test on Mus musculus [25], 35%. In the test listed under Rattus norvegicus [8], the ED50 came out at 10 mg/kg.

A word on the Inhibition: it is the percentage by which the read-out fell short of the control. On to `CC(C)c1ccc(OC(Cc2ccccc2)C(=O)O)cc1` (stereo not given), for which the Hypoglycemic activity in the test on Mus musculus [24] came out at 50%. The Basal uptake in the test with 3T3-L1 [19] worked out at 79%. Also, the Inhibition in the test filed under Rattus norvegicus [26] was found to be 25%; in the test listed under Rattus norvegicus [27] it was 41%. In addition, the ED50 in the test listed under Rattus norvegicus [8] stood at 50 mg/kg.

`CC(C)c1ccc(OC(C)(Cc2cccc(-c3ccccc3)c2)C(=O)[O-])cc1.[Na+]` (stereo not given): the Basal uptake with 3T3-L1 [16] turned out to be 118%; with 3T3-L1 [4], 193%; in the test on 3T3-L1 [5] it was 109%; in the test on 3T3-L1 [13], 76%; in the test on 3T3-L1 [6], 118%; with 3T3-L1 [28], 87%. Moreover, the Hypoglycemic activity with Mus musculus [2] was 83%; with Mus musculus [3] it was 46%; in the test on Mus musculus [9] it was 110%; with Mus musculus [10] it was 78%. Also, the ED50 in the test listed under Rattus norvegicus [8] amounted to 0.5 mg/kg.

For `C1CCC(NC2CCCCC2)CC1.CC(C)c1ccc(OC(Cc2cccc(F)c2)C(=O)O)cc1` (stereo not given), the figures for the Hypoglycemic activity in the test on Mus musculus [29] and in the test on Mus musculus [22] were 65% and 100%, respectively. The figures for the Inhibition in the test filed under Rattus norvegicus [30] and in the test filed under Rattus norvegicus [27] were 3% and 38%, respectively. In addition, in the test on 3T3-L1 [31], the Basal uptake came out at 111%. In the test listed under Rattus norvegicus [18], the ED50 was < 25 mg/kg.

Consider `C1CCC(NC2CCCCC2)CC1.CC(C)c1ccc(OC(Cc2cccc(C(F)(F)F)c2)C(=O)O)cc1` (stereo not given), for which the values for the Hypoglycemic activity in the test on Mus musculus [15], with Mus musculus [29] and in the test with Mus musculus [22] were <0%, 64% and 76%, respectively. Also, the Basal uptake in the test with 3T3-L1 [31] is 284%. In the test listed under Rattus norvegicus [18], the ED50 is 25 mg/kg.

Source of the values: ChEMBL document CHEMBL1129417, “Glucose transport-enhancing and hypoglycemic activity of 2-methyl-2-phenoxy-3-phenylpropanoic acids” (1996).
